From the CheMixHub ionic liquid set

Assay: xn = mol fraction of the nth substance listed

CCCC[n+]1cccc(C)c1.O=S(=O)([N-]S(=O)(=O)C(F)(F)F)C(F)(F)F + CCO
298.15 K, 101.3 kPa
Conditions	electrical conductivity [S/m]
x2 = 0	0.273
x2 = 0.4364	0.642
x2 = 0.6597	0.93
x2 = 0.8246	1.07

CCCC[n+]1ccn(C)c1.O=S(=O)([N-]S(=O)(=O)C(F)(F)F)C(F)(F)F + CCO
Conditions	electrical conductivity [S/m]	viscosity [mPa·s]
293 K, 100 kPa, x1 = 0.5784	–	20.7
293.3 K, 100 kPa, x1 = 0.4606	–	13.8
293.3 K, 100 kPa, x1 = 0.747	–	32.1
293.61 K, 100 kPa, x1 = 0.2688	–	6.37
293.61 K, 100 kPa, x1 = 1	–	61.8
293.91 K, 100 kPa, x1 = 0.2129	–	5.12
293.91 K, 100 kPa, x1 = 0.4606	–	13.5
293.91 K, 100 kPa, x1 = 0.6609	–	24.2
294.21 K, 100 kPa, x1 = 0.4215	–	12.22
294.21 K, 100 kPa, x1 = 0.6609	–	23.9
294.21 K, 100 kPa, x1 = 1	–	60.2
294.52 K, 100 kPa, x1 = 0.747	–	30.8
294.52 K, 100 kPa, x1 = 0.8264	–	38.5
294.52 K, 100 kPa, x1 = 1	–	59.4
294.82 K, 100 kPa, x1 = 0.4215	–	11.98
294.82 K, 100 kPa, x1 = 1	–	58.6
295.12 K, 100 kPa, x1 = 0.4215	–	11.87
295.12 K, 100 kPa, x1 = 0.747	–	30.1
295.42 K, 100 kPa, x1 = 0.2129	–	4.94
295.42 K, 100 kPa, x1 = 0.2688	–	6.11
295.42 K, 100 kPa, x1 = 0.4606	–	12.94
295.73 K, 100 kPa, x1 = 0.8264	–	36.7
296.64 K, 100 kPa, x1 = 0.2688	–	5.94
296.64 K, 100 kPa, x1 = 0.4606	–	12.48
296.64 K, 100 kPa, x1 = 1	–	54.1
296.94 K, 100 kPa, x1 = 0.4606	–	12.36
296.94 K, 100 kPa, x1 = 0.747	–	28.4
297.24 K, 100 kPa, x1 = 0.2688	–	5.85
297.24 K, 100 kPa, x1 = 0.4215	–	11.09
297.24 K, 100 kPa, x1 = 0.5784	–	18.17
297.24 K, 100 kPa, x1 = 0.747	–	28.1
297.55 K, 100 kPa, x1 = 0.8264	–	34.1
297.85 K, 100 kPa, x1 = 1	–	51.4
298 K, 100 kPa, x1 = 0.02	0.415	–
298 K, 100 kPa, x1 = 0.03	0.5634	–
298 K, 100 kPa, x1 = 0.05	–	1.663
298 K, 100 kPa, x1 = 0.06	0.8844	–
298 K, 100 kPa, x1 = 0.07	0.958	–
298 K, 100 kPa, x1 = 0.0999	–	2.413
298 K, 100 kPa, x1 = 0.1	1.118	–
298 K, 100 kPa, x1 = 0.1999	–	4.331
298 K, 100 kPa, x1 = 0.2	1.28	–
298 K, 100 kPa, x1 = 0.2993	–	6.629
298 K, 100 kPa, x1 = 0.3	1.216	–
298 K, 100 kPa, x1 = 0.397	–	9.56
298 K, 100 kPa, x1 = 0.4	1.09	–
298 K, 100 kPa, x1 = 0.4836	–	12.74
298 K, 100 kPa, x1 = 0.5	0.9534	–
298 K, 100 kPa, x1 = 0.6	0.8239	–
298 K, 100 kPa, x1 = 0.6978	–	23.61
298 K, 100 kPa, x1 = 0.7	0.6839	–
298 K, 100 kPa, x1 = 0.8	0.575	–
298 K, 100 kPa, x1 = 0.8001	–	30.86
298 K, 100 kPa, x1 = 0.8987	–	38.32
298 K, 100 kPa, x1 = 0.9	0.4819	–
298 K, 100 kPa, x1 = 1	–	49.7
298.15 K, 100 kPa, x1 = 0.2129	–	4.64
298.15 K, 100 kPa, x1 = 0.2688	–	5.73
298.15 K, 101 kPa, x2 = 0.1174	–	38.5
298.45 K, 100 kPa, x1 = 0.6609	–	21
298.45 K, 100 kPa, x1 = 0.747	–	27
298.76 K, 100 kPa, x1 = 0.4215	–	10.58
298.76 K, 100 kPa, x1 = 0.8264	–	32.6
299.06 K, 100 kPa, x1 = 0.2129	–	4.55
299.06 K, 100 kPa, x1 = 0.5784	–	17.18
299.06 K, 100 kPa, x1 = 0.6609	–	20.6
299.67 K, 100 kPa, x1 = 0.4606	–	11.41
299.97 K, 100 kPa, x1 = 0.2129	–	4.45
299.97 K, 100 kPa, x1 = 0.5784	–	16.72
300.27 K, 100 kPa, x1 = 0.2129	–	4.42
300.27 K, 100 kPa, x1 = 0.4215	–	10.11
300.27 K, 100 kPa, x1 = 0.747	–	25.4
300.27 K, 100 kPa, x1 = 0.8264	–	30.7
300.58 K, 100 kPa, x1 = 0.4215	–	10.02
300.88 K, 100 kPa, x1 = 0.2688	–	5.37
300.88 K, 100 kPa, x1 = 0.4215	–	9.92
301.18 K, 100 kPa, x1 = 0.2688	–	5.34
301.48 K, 100 kPa, x1 = 0.2129	–	4.3
302.7 K, 100 kPa, x1 = 0.2129	–	4.18
302.7 K, 100 kPa, x1 = 0.2688	–	5.15
302.7 K, 100 kPa, x1 = 0.747	–	23.5
302.7 K, 100 kPa, x1 = 0.8264	–	28.1
303 K, 100 kPa, x1 = 0.4606	–	10.38
303 K, 100 kPa, x1 = 0.747	–	23.2
303.3 K, 100 kPa, x1 = 0.2688	–	5.08
303.91 K, 100 kPa, x1 = 0.8264	–	26.8
304.52 K, 100 kPa, x1 = 0.4606	–	9.95
304.52 K, 100 kPa, x1 = 0.5784	–	14.59
304.52 K, 100 kPa, x1 = 1	–	39.3
304.82 K, 100 kPa, x1 = 0.2688	–	4.9
304.82 K, 100 kPa, x1 = 0.4215	–	8.85
304.82 K, 100 kPa, x1 = 0.747	–	21.9
305.12 K, 100 kPa, x1 = 1	–	38.4
306.03 K, 100 kPa, x1 = 0.2688	–	4.76
306.33 K, 100 kPa, x1 = 0.5784	–	13.83
306.33 K, 100 kPa, x1 = 0.8264	–	24.6
306.64 K, 100 kPa, x1 = 0.2688	–	4.69
306.64 K, 100 kPa, x1 = 0.6609	–	16.39
306.94 K, 100 kPa, x1 = 0.2129	–	3.8
307.24 K, 100 kPa, x1 = 0.4215	–	8.27
307.24 K, 100 kPa, x1 = 0.4606	–	9.23
308.15 K, 100 kPa, x1 = 0.2688	–	4.53
308.15 K, 100 kPa, x1 = 0.6609	–	15.67
308.45 K, 100 kPa, x1 = 0.2129	–	3.67
308.45 K, 100 kPa, x1 = 0.6609	–	15.53
308.45 K, 100 kPa, x1 = 0.747	–	19.5
308.76 K, 100 kPa, x1 = 0.4215	–	7.93
308.76 K, 100 kPa, x1 = 0.5784	–	12.88
308.76 K, 100 kPa, x1 = 0.747	–	19.3
309.06 K, 100 kPa, x1 = 0.2688	–	4.44
309.67 K, 100 kPa, x1 = 0.4215	–	7.73
309.67 K, 100 kPa, x1 = 1	–	32.4
309.97 K, 100 kPa, x1 = 0.4606	–	8.58
309.97 K, 100 kPa, x1 = 0.747	–	18.6
310.58 K, 100 kPa, x1 = 0.747	–	18.3
310.88 K, 100 kPa, x1 = 0.2129	–	3.47
310.88 K, 100 kPa, x1 = 0.5784	–	12.12
310.88 K, 100 kPa, x1 = 0.8264	–	20.9
311.18 K, 100 kPa, x1 = 0.4606	–	8.31
311.48 K, 100 kPa, x1 = 0.2129	–	3.42
311.79 K, 100 kPa, x1 = 0.4606	–	8.18
311.79 K, 100 kPa, x1 = 0.5784	–	11.8
311.79 K, 100 kPa, x1 = 0.747	–	17.58
311.79 K, 100 kPa, x1 = 0.8264	–	20.3
312.09 K, 100 kPa, x1 = 0.2688	–	4.13
312.09 K, 100 kPa, x1 = 0.6609	–	13.95
312.39 K, 100 kPa, x1 = 0.2688	–	4.1
312.39 K, 100 kPa, x1 = 0.4606	–	8.05
312.7 K, 100 kPa, x1 = 0.2688	–	4.07
313 K, 100 kPa, x1 = 0.747	–	16.94
313 K, 100 kPa, x1 = 1	–	28.8
313.3 K, 100 kPa, x1 = 0.4215	–	7.02
313.61 K, 100 kPa, x1 = 0.8264	–	19
313.91 K, 100 kPa, x1 = 0.6609	–	13.23
313.91 K, 100 kPa, x1 = 0.747	–	16.47
314.21 K, 100 kPa, x1 = 0.2129	–	3.21
314.21 K, 100 kPa, x1 = 0.2688	–	3.93
314.21 K, 100 kPa, x1 = 0.747	–	16.32
314.52 K, 100 kPa, x1 = 0.5784	–	10.92
314.52 K, 100 kPa, x1 = 0.747	–	16.17
314.82 K, 100 kPa, x1 = 0.6609	–	12.88
315.12 K, 100 kPa, x1 = 0.8264	–	18.1
315.42 K, 100 kPa, x1 = 0.2688	–	3.82
315.42 K, 100 kPa, x1 = 0.6609	–	12.66
315.73 K, 100 kPa, x1 = 0.4215	–	6.59
315.73 K, 100 kPa, x1 = 0.5784	–	10.55
315.73 K, 100 kPa, x1 = 0.6609	–	12.55
316.03 K, 100 kPa, x1 = 0.2688	–	3.77
316.33 K, 100 kPa, x1 = 0.4606	–	7.27
316.64 K, 100 kPa, x1 = 0.4215	–	6.44
316.64 K, 100 kPa, x1 = 0.5784	–	10.29
316.64 K, 100 kPa, x1 = 1	–	25.4
316.94 K, 100 kPa, x1 = 0.6609	–	12.12
316.94 K, 100 kPa, x1 = 0.8264	–	17
317.24 K, 100 kPa, x1 = 0.6609	–	12.01
317.55 K, 100 kPa, x1 = 0.2688	–	3.64
317.55 K, 100 kPa, x1 = 0.4215	–	6.29
317.55 K, 100 kPa, x1 = 0.5784	–	10.03
317.85 K, 100 kPa, x1 = 0.4215	–	6.24
317.85 K, 100 kPa, x1 = 0.6609	–	11.8
318.15 K, 100 kPa, x1 = 0.2688	–	3.58
318.15 K, 100 kPa, x1 = 0.4606	–	6.94
318.76 K, 100 kPa, x1 = 0.4606	–	6.83
318.76 K, 100 kPa, x1 = 0.5784	–	9.69
318.76 K, 100 kPa, x1 = 1	–	23.7
319.06 K, 100 kPa, x1 = 0.2129	–	2.87
319.67 K, 100 kPa, x1 = 0.4215	–	5.97
319.67 K, 100 kPa, x1 = 0.747	–	13.83
319.97 K, 100 kPa, x1 = 0.4606	–	6.63
319.97 K, 100 kPa, x1 = 0.5784	–	9.37
320.27 K, 100 kPa, x1 = 0.5784	–	9.29
320.27 K, 100 kPa, x1 = 0.747	–	13.58
320.27 K, 100 kPa, x1 = 0.8264	–	15.24
320.58 K, 100 kPa, x1 = 0.4215	–	5.83
321.18 K, 100 kPa, x1 = 0.4606	–	6.43
321.18 K, 100 kPa, x1 = 0.6609	–	10.73
321.48 K, 100 kPa, x1 = 0.747	–	13.09
321.79 K, 100 kPa, x1 = 0.2688	–	3.29
321.79 K, 100 kPa, x1 = 0.4606	–	6.33
322.09 K, 100 kPa, x1 = 0.2129	–	2.67
322.09 K, 100 kPa, x1 = 0.4215	–	5.62
322.09 K, 100 kPa, x1 = 1	–	21.3
322.39 K, 100 kPa, x1 = 0.747	–	12.74
322.7 K, 100 kPa, x1 = 0.747	–	12.63
323 K, 100 kPa, x1 = 0.4606	–	6.15

CCCC[n+]1ccn(C)c1.[O-][Cl+3]([O-])([O-])[O-] + CCO
viscosity [mPa·s], 101 kPa
Conditions	x2 = 0.592	x2 = 0.637	x2 = 0.79	x2 = 0.86
303.15 K	–	8.7	4	3.6
313.15 K	7.4	6.7	–	–
